The subject of data set [1] is LPS-induced ARDS. The conditions noted are these: for protection from LPS-induced ARDS: last dose 30 min prior to 5 mg/kg LPS. As for the experimental part:
Briefly, 5 mg/kg LPS or vehicle was i.p. injected and the mice were euthanized 8, 24 or 48 hrs later. […] In all cases, at the experimental endpoint the lungs were inflated with cold PBS, excised and fixed in 10% formalin for histological evaluation.
(§1) Paired antibodies (capture and detection) and standard recombinant mouse IL-1β (R&D Systems), and TNF and IL-6 (eBioscience) were used to determine mouse cytokine concentrations according to manufacturer's instructions.
Lungs were fixed in 10% formalin for 24 hrs and embedded in paraffin, sectioned and stained with hematoxylin and eosin (H&E) to evaluate gross morphology and lung damage and inflammation; and with Sirius red to determine collagen buildup. Ten to twelve H&E stained sections from each animal were scored for the degree of lung inflammation and damage by two blinded mouse lung pathology experts as described (Jupelli et al., 2013), and the scores were averaged. Briefly, the degree of lung inflammation was assigned an arbitrary score of 0 (normal=no inflammation, no airway thickening, no edema), 1 (minimal cellular infiltration, and minimal edema), 2 (mild-moderate cellular infiltration, plus mild airway thickening and mild edema), 3 (severe cellular infiltration, plus diffuse airway thickening and severe edema) in 10-12 fields per mouse.
Lung sections were subjected to incubation with antibodies specific for F4/80 (macrophage marker), myeloperoxidase (MPO, neutrophil marker), c/EBPb, NFATc2 and NFATc3. Stained areas were quantified using ImageJ software.
NLRP3 inflammasome activation in the lung was detected by immunofluorescence co-staining with F4/80 and ASC antibodies. Briefly, lung sections were hydrated and boiled at 96° C. in citrate buffer 1× for 20 min. Sections were blocked with 2% BSA/PBS1X containing 1% normal horse serum for 1 hr at room temperature. F4/80 and ASC antibodies were incubated in blocking solution overnight at 4° C. After washing, Alexa secondary antibodies were added and the sections were incubated in 2% BSA/PBS1X for 1 hr at room temperature. Sections were washed, incubated with DAPI, and mounted using FluoSave. Sections were imaged through a Leica SP5 confocal microscope. The percentage of F4/80^+ cells with ASC specks were quantified in 18-26 high magnification fields from 4-5 mice per group.

Data set [2] in a line: LC-MS/MS metformin concentration in plasma. The conditions noted are these: 24 hrs after LPS challenge, oral and i.p.
Description: Pooled mice plasma (CD-1 (ICR) MSE00PLK2, BioIVT) was selected as blank matrix for standards and quality control samples. Sample preparation procedure was adopted from literatures with minor modifications. […] The samples mix were vortexed for 2 minutes then sonicated for 1 min and centrifuged at 6100 g for 10 min. Supernatants were transferred into a new set 96-well plate, and 10 μL were injected for LC-MS/MS analysis. […] The solution was then serially diluted with 50% methanol-water to obtain standard working solutions over a concentration range of 10-2000 ng/ml. The quality control (QC) samples were prepared in three concentrations: 10, 100, and 500 ng/ml.
LC-MS/MS system was performed using an Agilent 1290 Infinity HPLC and HiP ALS (Autosampler) coupled with AB Sciex 6500 Q-Trap mass spectrometer. All data were acquired using Analyst (AB SCIEX v1.7.1). […] The mobile phase A was 20 mM ammonium acetate buffer in water and 100% acetonitrile as mobile phase B. A total 7 min gradient run with a flow rate of 0.8 ml/min was implemented. […] The mass spectrometer was operated in a positive mode using scheduled multiple reaction morning (sMRM).
Data set [3] has as its system BMDM. The experiment in a line: Cytokine secretion by LPS-stimulated BMDM (ELISA). The conditions noted are these: LPS-stimulated BMDM, metformin 0.5 mM 16 hrs. It counts as cell-based, mouse.
Description: as §1
Background: An ELISA detects its analyte on a solid surface through an enzyme-linked reagent.

[4] abbreviates: Cmpk2ΔMye mice, 50 mg/kg metformin.
[5] abbreviates: therapeutic, 50 mg/kg i.p. after LPS.

Consider one compound from patent US12642780B2, “Methods and compositions to treat and prevent viral infections and acute respiratory distress syndrome” (priority 2020, dated 2026).

Where two headings read alike, the source gives them in different places.

Take `CN(C)C(=N)NC(=N)N` [metformin, N,N-dimethylbiguanide]: the “protection from LPS-induced ARDS” value in data set [1] (10 mg/kg i.p. three consecutive days) is “modest protective effect”. In addition, in data set [1] (50 mg/kg i.p. three consecutive days), the “protection from LPS-induced ARDS” value is listed as “strong protection”. In data set [1] (50 mg/kg prophylactic), the “IL-1β and IL-6 in BALF” value was “decreased”; the “TNF in BALF” value is listed as “no effect”; the collagen buildup entry is “abrogated”; the “infiltration of inflammatory cells into bronchioles, vascular bed and lung parenchyma” value is given as “inhibited”. Also, the “macrophage and neutrophil infiltration” value in data set [1] (50 mg/kg prophylactic, F4/80 and MPO staining) was “strongly inhibited”. Also, the septa thickening entry in data set [1] (50 mg/kg prophylactic, lung histology) is listed as “prevented”. In data set [1] (setting [4]), the “c/EBPβ activation and IL-6 secretion to BALF” value is recorded as “did inhibit”; the “lung pathology or IL-1β secretion” value is “did not result in noticeable improvement”. Besides, the “preventive efficacy of oral metformin” value in data set [1] (drinking water 400 mg/kg starting 48 hrs prior to LPS) is “as protective as injected metformin”. Moreover, in data set [1] (prophylactic metformin), the “ASC speck formation in lung” value is reported as “limited”; the “c/EBPβ and NFAT activation in lung” value was “limited”. Moreover, in data set [1] (setting [5]), the “IL-1β in BALF” value was “decreased”; the “macrophage and neutrophil infiltration” value is reported as “inhibited”. In addition, the circulating concentrations result in data set [2] is given as “equally low”. In addition, in data set [3], the IL-6 secretion result was “inhibited” and the TNF release result was “unaffected”.
